This is an account of results in ChEMBL document CHEMBL4390670, “4-Aryl Pyrrolidines as a Novel Class of Orally Efficacious Antimalarial Agents. Part 1: Evaluation of 4-Aryl- N-benzylpyrrolidine-3-carboxamides” (J Med Chem, 2019).

Data set [1] has as its target Voltage-gated inwardly rectifying potassium channel KCNH2 (Homo sapiens, UniProt Q12809).
Description: Inhibition of Tracer Red binding to human ERG expressed in membranes by fluorescence polarization assay
For the next data set, the system named is hERG. Nature of the data set: in vitro. The following applies: human, membranes expressing human ERG, probe Tracer Red.
A further data set concerns Plasmodium falciparum. Nature of the data set: microbe, parasite or virus in culture. The following applies: 3D7, 72 h.
Data set [2] can be described thus: Half life in mouse liver microsomes at 1 uM measured after 30 mins in presence of NADPH by LC-MS/MS analysis. The following applies: microsomes, 0.5 h, 1 µM. The format is ADME, Microsome.
A further data set addresses Beta-secretase 1 (Homo sapiens, UniProt P56817). Nature of the data set: Inhibition of recombinant human C-terminal His10-tagged BACE1 using Mca-SEVNLDAEFRK(Dpn)RR-NH2 as substrate measured after 60 mins by TR-FRET assay. (In general: In TR-FRET formats the signal depends on donor and acceptor labels being close together.)
Another data set addresses Plasmepsin II (Plasmodium falciparum, UniProt P46925). Nature of the data set: Inhibition of Plasmodium falciparum plasmepsin 2 using EDANS-CO-CH2-CH2-CO-ALERMFLSFP-Dap(DABCYL)OH as substrate measured after 60 mins by fluorescence assay.
The target in a further data set is Plasmepsin 4 (Plasmodium falciparum, UniProt Q17SB2). Nature of the data set: Inhibition of Plasmodium falciparum plasmepsin 4 using EDANS-CO-CH2-CH2-CO-ALERMFLSFP-Dap(DABCYL)OH as substrate measured after 60 mins by fluorescence assay.
Data set [3] is described as follows: Intrinsic clearance in mouse liver microsomes at 1 uM measured after 30 mins in presence of NADPH by LC-MS/MS analysis. The format is ADME, Microsome. To be noted: 0.5 h. (In general: Liver microsomes are a subcellular fraction often used to study metabolism.)

As usually defined, the IC50 is the concentration that inhibits the measured activity by half.

Plasmepsin 4, sequence (Q17SB2 whole entry): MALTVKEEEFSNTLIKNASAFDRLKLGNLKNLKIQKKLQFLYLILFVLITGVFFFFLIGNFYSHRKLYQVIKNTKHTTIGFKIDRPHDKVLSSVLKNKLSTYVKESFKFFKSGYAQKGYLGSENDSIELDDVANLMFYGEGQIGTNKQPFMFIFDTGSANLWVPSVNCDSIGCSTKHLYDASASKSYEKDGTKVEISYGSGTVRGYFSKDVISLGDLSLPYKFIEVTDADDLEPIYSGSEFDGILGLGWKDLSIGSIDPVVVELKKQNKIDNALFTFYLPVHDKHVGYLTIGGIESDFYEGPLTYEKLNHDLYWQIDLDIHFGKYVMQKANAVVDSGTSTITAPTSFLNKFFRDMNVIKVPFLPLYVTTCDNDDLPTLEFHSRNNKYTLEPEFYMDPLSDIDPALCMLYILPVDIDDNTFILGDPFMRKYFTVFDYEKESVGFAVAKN
Beta-secretase 1, sequence (P56817 whole entry): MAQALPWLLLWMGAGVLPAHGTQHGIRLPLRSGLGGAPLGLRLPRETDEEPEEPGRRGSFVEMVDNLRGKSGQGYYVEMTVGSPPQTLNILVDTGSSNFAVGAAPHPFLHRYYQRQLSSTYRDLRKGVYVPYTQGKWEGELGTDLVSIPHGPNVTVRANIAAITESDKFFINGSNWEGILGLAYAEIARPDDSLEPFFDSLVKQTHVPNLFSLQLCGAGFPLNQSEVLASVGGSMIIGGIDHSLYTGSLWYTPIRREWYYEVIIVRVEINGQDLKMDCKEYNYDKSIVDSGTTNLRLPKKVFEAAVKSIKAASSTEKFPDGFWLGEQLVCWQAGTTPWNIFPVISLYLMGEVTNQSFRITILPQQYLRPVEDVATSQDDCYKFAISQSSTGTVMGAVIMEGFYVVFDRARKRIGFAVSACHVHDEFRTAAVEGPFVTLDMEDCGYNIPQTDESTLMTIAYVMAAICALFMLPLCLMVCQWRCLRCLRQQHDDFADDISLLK
Voltage-gated inwardly rectifying potassium channel KCNH2, sequence (Q12809 whole entry): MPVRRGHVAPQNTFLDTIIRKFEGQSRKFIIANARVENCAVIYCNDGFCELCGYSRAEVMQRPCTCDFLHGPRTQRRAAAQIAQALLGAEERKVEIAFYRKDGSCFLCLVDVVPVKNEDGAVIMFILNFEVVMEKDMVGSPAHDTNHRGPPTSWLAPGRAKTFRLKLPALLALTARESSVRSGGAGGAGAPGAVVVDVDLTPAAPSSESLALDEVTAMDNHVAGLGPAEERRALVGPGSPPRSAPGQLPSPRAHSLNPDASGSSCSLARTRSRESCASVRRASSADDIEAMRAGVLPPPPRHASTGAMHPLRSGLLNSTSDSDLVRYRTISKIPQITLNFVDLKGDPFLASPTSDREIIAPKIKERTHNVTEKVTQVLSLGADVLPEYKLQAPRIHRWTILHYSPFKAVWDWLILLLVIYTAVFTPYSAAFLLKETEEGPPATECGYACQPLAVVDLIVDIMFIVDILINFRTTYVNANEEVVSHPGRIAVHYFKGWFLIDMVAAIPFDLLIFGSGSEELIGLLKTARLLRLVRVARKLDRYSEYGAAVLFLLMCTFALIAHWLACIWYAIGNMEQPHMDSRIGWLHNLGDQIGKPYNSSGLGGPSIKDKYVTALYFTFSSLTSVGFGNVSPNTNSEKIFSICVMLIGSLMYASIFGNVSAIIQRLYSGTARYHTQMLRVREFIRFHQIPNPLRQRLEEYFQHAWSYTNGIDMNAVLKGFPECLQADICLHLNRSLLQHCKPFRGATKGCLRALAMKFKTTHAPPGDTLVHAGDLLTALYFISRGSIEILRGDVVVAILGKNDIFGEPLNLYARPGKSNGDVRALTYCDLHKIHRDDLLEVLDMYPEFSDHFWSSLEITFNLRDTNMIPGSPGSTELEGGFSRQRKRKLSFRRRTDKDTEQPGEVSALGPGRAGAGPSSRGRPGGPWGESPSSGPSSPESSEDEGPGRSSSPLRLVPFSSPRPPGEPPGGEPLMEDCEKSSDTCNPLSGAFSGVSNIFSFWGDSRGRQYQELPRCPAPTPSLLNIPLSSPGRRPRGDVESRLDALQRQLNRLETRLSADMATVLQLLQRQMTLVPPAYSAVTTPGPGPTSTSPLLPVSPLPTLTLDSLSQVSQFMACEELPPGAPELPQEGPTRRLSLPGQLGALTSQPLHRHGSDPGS
Plasmepsin II, sequence (P46925 whole entry): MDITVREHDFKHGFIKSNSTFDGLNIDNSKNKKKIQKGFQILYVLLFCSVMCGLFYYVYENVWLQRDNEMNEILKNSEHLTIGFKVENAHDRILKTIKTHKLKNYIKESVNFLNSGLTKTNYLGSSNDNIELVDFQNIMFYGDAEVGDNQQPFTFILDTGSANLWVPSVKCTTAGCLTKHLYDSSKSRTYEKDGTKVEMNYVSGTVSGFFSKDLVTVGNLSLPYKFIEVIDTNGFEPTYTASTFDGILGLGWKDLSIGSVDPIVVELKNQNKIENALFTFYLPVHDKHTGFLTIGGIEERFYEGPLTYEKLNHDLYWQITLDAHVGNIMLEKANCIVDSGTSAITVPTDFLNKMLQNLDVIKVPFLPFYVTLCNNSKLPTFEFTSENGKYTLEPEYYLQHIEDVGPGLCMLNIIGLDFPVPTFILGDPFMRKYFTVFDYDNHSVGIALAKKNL
Description for Plasmodium falciparum: Antimalarial activity against chloroquine-sensitive Plasmodium falciparum 3D7 measured after 72 hrs by SYBR Green 1 dye based fluorescence assay
Description for hERG: Selectivity ratio of IC50 for inhibition of Tracer Red binding to human ERG expressed in membranes to IC50 for chloroquine-sensitive Plasmodium falciparum 3D7

On to `C[C@H](NC(=O)[C@H]1CNC[C@@H]1c1ccc(C(F)(F)F)nc1)c1ccc(N(C)C)cc1`, for which the IC50 in data set [1] is above 50000 nM; in the data set on Plasmodium falciparum it was 140 nM. Moreover, the selectivity ratio with hERG was above 357.

In the case of `C[C@@H](NC(=O)[C@H]1CNC[C@@H]1c1ccc(C(F)(F)F)nc1)c1ccc(N(C)C)cc1`, in the data set with Plasmodium falciparum, the half-inhibitory concentration (IC50) is 11000 nM.

As to `O=C(NCc1ccc(-c2ccccc2)cc1)[C@H]1CNC[C@@H]1c1ccc(C(F)(F)F)nc1`, in the data set with Plasmodium falciparum, inhibition was half-maximal at 5900 nM (IC50).

`O=C(NCc1ccc(Br)cc1)[C@H]1CNC[C@@H]1c1ccc(C(F)(F)F)nc1` showed an IC50 with Plasmodium falciparum of 1200 nM.

In the data set on Plasmodium falciparum, `O=C(NCc1ccc(-n2cccn2)cc1)[C@H]1CNC[C@@H]1c1ccc(C(F)(F)F)nc1` showed an IC50 of 29000 nM.

The molecule `CN(C)c1ccc(CNC(=O)[C@H]2CNC[C@@H]2c2ccc(C(F)(F)F)nc2)cn1` registered an IC50 in the data set with Plasmodium falciparum of 1000 nM.

As to `C[C@H](NC(=O)[C@@H]1CNC[C@H]1c1ccc(C(F)(F)F)cc1)c1ccc(N(C)C)cc1`, in the data set on Plasmodium falciparum, the IC50 was found to be 130 nM.

`C[C@H](NC(=O)[C@@H]1CNC[C@H]1c1ccc(C(F)(F)F)nc1)c1ccc(N(C)C)cc1` gave an IC50 with Plasmodium falciparum of 380 nM.

In the data set with Plasmodium falciparum, `O=C(NCc1ccc(C(F)(F)F)nc1)[C@H]1CNC[C@@H]1c1ccc(C(F)(F)F)nc1` returned an IC50 of 18000 nM.

Take `CN(C)c1ccc(CNC(=O)[C@H]2CNC[C@@H]2c2ccc(C(F)(F)F)cc2)cc1` (racemic): in data set [2], the t1/2 came out at 35 min. For the same molecule, the IC50 is above 10000 nM on Beta-secretase 1; above 10000 nM against Plasmepsin II; above 10000 nM against Plasmepsin 4; 9410 nM in data set [1]; 200 nM in the data set on Plasmodium falciparum. The “Intrinsic clearance (CLint)” value in data set [3] stood at 6.2 µL/min/mg.

`Cc1ccc([C@@H]2CNC[C@H]2C(=O)NCc2ccc(N(C)C)cc2)cc1Cl` (racemic) returned an IC50 in the data set on Plasmodium falciparum of 230 nM.

`CN(C)c1ccc(CNC(=O)[C@H]2CNC[C@@H]2c2ccc3ccsc3c2)cc1` (racemic) gave an IC50 in the data set with Plasmodium falciparum of 240 nM.

In the data set with Plasmodium falciparum, `CN(C)Cc1ccc(CNC(=O)[C@H]2CNC[C@@H]2c2ccc(C(F)(F)F)nc2)cc1` (racemic) showed an IC50 above 20000 nM.

For `CN(C)c1ccc(CNC(=O)[C@@H]2CNC[C@H]2c2ccc(Oc3ccccc3)cc2)cc1` (racemic), the t1/2 in data set [2] was found to be 31 min. Moreover, the IC50 at Beta-secretase 1 was above 10000 nM; against Plasmepsin II it was above 10000 nM; at Plasmepsin 4, above 10000 nM; in data set [1], 2110 nM; with Plasmodium falciparum, 170 nM. In data set [3], the “Intrinsic clearance (CLint)” value was 7.2 µL/min/mg.

Take `CN(C)c1ccc(CNC(=O)[C@@H]2CNC[C@H]2c2cccc(Oc3ccccc3)c2)cc1` (racemic): half-maximal inhibition with Plasmodium falciparum (IC50) required 1800 nM.

For `CN(C)c1ccc(CNC(=O)[C@H]2CNC[C@@H]2c2ccc(C(F)(F)F)s2)cc1` (racemic), the IC50 with Plasmodium falciparum stood at 1100 nM.

`CN(C)c1ccc(CNC(=O)[C@H]2CNC[C@@H]2c2ccc(C(C)(F)F)cc2)cc1` (racemic) returned an IC50 with Plasmodium falciparum of 130 nM.

Molecule `CN(C)c1ccc(CNC(=O)[C@@H]2CNC[C@H]2c2ccc(Cl)cc2)cc1` (racemic) gave an IC50 in the data set on Plasmodium falciparum of 680 nM.

Turning to `CN(C)c1ccc(CNC(=O)[C@@H]2CNC[C@H]2c2cnc3ccccc3c2)cc1` (racemic), inhibition in the data set on Plasmodium falciparum was half-maximal at 280 nM (IC50).

`CN(C)c1ccc(CNC(=O)[C@H]2CNC[C@@H]2c2ccc(C(F)F)cc2)cc1` (racemic) had an IC50 in the data set with Plasmodium falciparum of 250 nM.

For `CN(C)c1ccc(CNC(=O)[C@H]2CNC[C@@H]2c2cc3ccccc3s2)cc1` (racemic), the IC50 in the data set with Plasmodium falciparum is 270 nM.

In the data set on Plasmodium falciparum, `CN(C)c1ccc(CNC(=O)[C@H]2CNC[C@@H]2c2cc(C(F)(F)F)n(C)n2)cc1` (racemic) gave an IC50 of 5300 nM.

As to `CN(C)c1ccc(CNC(=O)[C@H]2CNC[C@@H]2c2ccc(C(C)(C)C)s2)cc1` (racemic), the 50% inhibitory concentration (IC50) in the data set on Plasmodium falciparum amounted to 280 nM.

As for `CN(C)c1ccc(CNC(=O)[C@@H]2CNC[C@H]2c2ccc(C(F)(F)F)c(F)c2)cc1` (racemic), in data set [2], the t1/2 worked out at 34 min. The IC50 on Beta-secretase 1 was above 10000 nM; against Plasmepsin II, above 10000 nM; against Plasmepsin 4 it was above 10000 nM; in data set [1] it was 8540 nM; with Plasmodium falciparum, 140 nM. Besides, the “Intrinsic clearance (CLint)” value in data set [3] was found to be 6.4 µL/min/mg.

Consider `CCN(CC)c1ccc(CNC(=O)[C@@H]2CNC[C@H]2c2ccc(C(F)(F)F)cc2)cc1` (racemic), for which the half-maximal inhibitory concentration (IC50) is above 10000 nM on Beta-secretase 1; above 10000 nM on Plasmepsin II; above 10000 nM at Plasmepsin 4; 4740 nM in data set [1]; 600 nM in the data set on Plasmodium falciparum.

With `CN(C)c1ccc(CNC(=O)[C@@H]2CNC[C@H]2c2ccc(C(F)(F)F)cc2F)cc1` (racemic), the IC50 in the data set with Plasmodium falciparum is 890 nM.

Regarding `CN(C)c1ccc(CNC(=O)[C@H]2CNC[C@@H]2c2cc3ccccc3o2)cc1` (racemic), in the data set on Plasmodium falciparum, the midpoint of inhibition, the IC50, lay at 150 nM.

For the molecule `O=C(NCc1ccccc1)[C@@H]1CNC[C@H]1c1ccc(C(F)(F)F)cc1` (racemic), in the data set with Plasmodium falciparum, the IC50 stood at 4300 nM.

As for `CN(C)c1ccc(CNC(=O)[C@@H]2CNC[C@H]2CCc2ccc(C(F)(F)F)cc2)cc1` (racemic), the concentration for half-maximal inhibition (IC50) with Plasmodium falciparum stood at 4400 nM.

The molecule `Cc1ccc([C@@H]2CNC[C@H]2C(=O)NCc2ccc(N(C)C)cc2)cc1` (racemic) registered an IC50 in the data set with Plasmodium falciparum of 750 nM.

In the data set with Plasmodium falciparum, `CN(C)c1ccc(CNC(=O)[C@H]2CNC[C@@H]2c2cccc(S(F)(F)(F)(F)F)c2)cc1` (racemic) displayed a concentration for half-maximal inhibition (IC50) of 410 nM.

On to `CN1CCc2cc(CNC(=O)[C@@H]3CNC[C@H]3c3ccc(C(F)(F)F)cc3)ccc21` (racemic), for which the IC50 in the data set on Plasmodium falciparum turned out to be 230 nM.

In the case of `O=C(NCc1ccc(N2CCCC2)cc1)[C@H]1CNC[C@@H]1c1ccc(C(F)(F)F)nc1` (racemic), in the data set on Plasmodium falciparum, the IC50 amounted to 640 nM.

On to `CN(C)c1ccc(CNC(=O)[C@H]2CNC[C@@H]2c2cnc(C(F)(F)F)s2)cc1` (racemic), for which, in the data set on Plasmodium falciparum, the IC50 stood at 1500 nM.

With `CN(C)c1ccc(CNC(=O)[C@@H]2CNC[C@H]2c2ccc(C(F)(F)F)c(Cl)c2)cc1` (racemic), in data set [2], the t1/2 is reported as 33 min. Further, the half-maximal inhibitory concentration (IC50) was above 10000 nM at Beta-secretase 1; above 10000 nM at Plasmepsin II; above 10000 nM at Plasmepsin 4; 7560 nM in data set [1]; 83 nM in the data set on Plasmodium falciparum. Besides, the “Intrinsic clearance (CLint)” value in data set [3] was determined as 6.7 µL/min/mg.

With `CN(C)c1ccc(CNC(=O)[C@@H]2CNC[C@H]2c2ccc(Oc3ccccn3)cc2)cc1` (racemic), the IC50 in the data set on Plasmodium falciparum turned out to be 16000 nM.

As to `CN(C)c1ccc(CNC(=O)[C@H]2CNC[C@@H]2c2cnc(C(F)(F)F)nc2)cc1` (racemic), the IC50 in data set [1] is above 50000 nM; in the data set on Plasmodium falciparum, 450 nM. The selectivity ratio in the data set with hERG was above 111.

In the data set with Plasmodium falciparum, `CN(C)c1ccc(CNC(=O)[C@@H]2CNC[C@H]2c2ccc(C(F)(F)F)cc2Cl)cc1` (racemic) had an IC50 of 340 nM.

For the molecule `CN(C)c1ccc(CNC(=O)[C@@H]2CNC[C@H]2c2ccc(C(C)(C)C)cc2)cc1` (racemic), the IC50 with Plasmodium falciparum turned out to be 190 nM.

Molecule `CN(C)c1ccc(CNC(=O)[C@H]2CNC[C@@H]2c2ccc(S(F)(F)(F)(F)F)cc2)cc1` (racemic) came in with a concentration for half-maximal inhibition (IC50) in the data set with Plasmodium falciparum of 470 nM.

The molecule `CN(C)c1ccc(CNC(=O)[C@@H]2CNC[C@H]2c2ccc(Cl)c(Cl)c2)cc1` (racemic) registered an IC50 in the data set with Plasmodium falciparum of 130 nM.

In turn, `CN(C)c1ccc(CNC(=O)[C@H]2CNC[C@@H]2c2ccc3sccc3c2)cc1` (racemic) yielded an IC50 in the data set with Plasmodium falciparum of 220 nM.

Turning to `C[C@@H]1CC[C@H]2[C@@H](C)C(=O)O[C@@H]3O[C@@]4(C)CC[C@@H]1[C@]32OO4` [ARTEMISININ], in the data set with Plasmodium falciparum, the IC50 was 54 nM.
